Like-named read-outs stand apart in the source and are kept apart here.
Legend:
P-glycoprotein (P-gp) = P-glycoprotein (P-gp) (Homo sapiens, UniProt P08183)
Procedure: Transport studies. Caco-2 monolayers were rinsed twice with KRB to remove the cell culture medium. Fresh KRB (pH 7.4) was filled into the acceptor compartment and the transport solution (test substance in KRB at pH 7.4) into the donor compartment. The cells were equilibrated for 30 min in a CO2 incubator at 37 °C and stayed there between the sample collection points. After pre-incubation, samples were taken from the donor and acceptor compartment, respectively. The concentration of test compound in the donor compartment was defined as initial donor concentration. At 0 min, 30 min, 60 min, 90 min and 120 min 100 µL samples were drawn from the acceptor compartment. The amount of solution removed was replaced by fresh, pre-warmed KRB. At the final pull point, samples were retrieved from the donor compartment, too. All tests were carried out in triplicate. For studies including the P-glycoprotein (P-gp) inhibitor cyclosporin A and the marker compound for P-gp transport inhibitors, [^3H]-digoxin the substances were applied to both the donor and acceptor compartment in the same concentration. […]
[^3H]-propranolol and [^3H]-digoxin were quantified by liquid scintillation counting. […] After an equilibration period of at least 1 h radiation was measured for 2 min per well in a scintillation counter. The recorded counts in a blank sample were subtracted from the value of each test sample.
Data of the permeability study were calculated using MS Excel (Microsoft, Redmond, WA, USA). Apparent permeability coefficient (Papp) was calculated according to the following equation: Papp=ΔQ 1 1/Δt m0 A VD(cm·s^−1) where ΔQ/Δt is the permeability rate (steady state transport rate) obtained from the profile of the transported mass or radioactivity of substrate versus time (µg or dpm·s^−1). Calculated by the linear regression of time and concentration. A is the area of the exposed cell monolayer (cm^2), m0 is the initial mass or radioactivity of test compound in the donor compartment (µg or dpm), and VD is the buffer volume of donor compartment. […]

Caco-2 cells = assay: Tolerability of enisamium iodide to Caco-2 cells (TEER); format: cell-based, human
Procedure: For this purpose, the cells were incubated with the highest dose supposed for the permeability studies (100 μM). After an incubation period of 120 min at 37 °C the TEER was checked to assess the integrity of the cell monolayers. […] All experiments were performed in triplicate. As a positive control, sodium dodecyl sulfate was used in this experiment.
The TEER was calculated according to TEER= Rc(A)=(Rc+f−Rf)A (Ω·cm^2). where Rc(A) is the electrical resistance of the monolayer with the area A (Ω cm^2); Rc+f is the electrical resistance of the monolayer including the filter (Ω); Rf is the electrical resistance of the filter without cells (Ω); and A is the area of the monolayer (cm^2).

Caco-2 cell monolayers = assay: Caco-2 monolayer transport (permeability) study; format: in vitro ADME, human; conditions: Caco-2, 10–100 μM
Procedure: (§1) Cell culture. For the maintenance culture, Caco-2 cells were incubated at 37 °C, 5% CO2, and 90% relative humidity in 75 cm^2 culture flasks with supplemented Dulbecco's Modified Eagle's Medium (DMEM). The cells were passaged once a week using trypsin/ethylenediaminetetraacetic acid (EDTA) solution. Approximately 10^6 cells were seeded per flask. The culture medium was changed three times a week. For the transport studies, the Caco-2 cells were inoculated at a density of 60,000 cells/cm^2 on Transwell filter inserts and placed into 12-well flat-bottom cluster plates. The inserts (apical compartments) were supplied with 0.5 mL and the outer wells (basal compartments) with 1.5 mL of DMEM culture medium. The cells for the present transport study were cultured at 37 °C, 5% CO2 and 90% relative humidity in DMEM culture medium for 18 days until they formed confluent monolayers (31 passages). The culture medium was replaced every 2-3 days. […] Transport studies. […] All tests were carried out in triplicate. […] Testing of integrity of monolayers. Each batch of monolayer Caco-2 cells was inoculated and cultured under the same conditions on Transwell filter inserts in parallel. Qualification of intactness of the Caco-2 monolayer batches prior to the transport studies was carried out in triplicate for each transport condition using the selected transport markers fluorescein, [^3H]-propranolol and rhodamine 123. […] Mobile phase A consisted of 0.1% formic acid in water and mobile phase B of 0.1% formic acid in acetonitrile. […] The samples were kept at 10 °C and injected at a volume of 20 μL. The triple quad mass spectrometer system (Waters) was used in the positive (ESI^+) electrospray mode at 2.63 kV. […] Fluorescein and rhodamine 123 samples (100 μL) were determined by fluorescence reading. The samples were collected in 96 well microtiter plates. The fluorescence intensity was recorded by exciting the sample with light at 485 nm and measuring the emitted fluorescence at 535 nm. The fluorescence emission of a blank sample (Krebs-Ringer bicarbonate buffer (KRB) solution) was used as baseline.

[1] = Caco-2 monolayer transport (permeability) study; format: in vitro ADME, human; conditions: human
Procedure: as §1

[2] = Solubility study in buffer solutions pH 1.2-7.5 (shake flask, HPLC); format: physicochemical; conditions: for solubility at 48 h: hydrochloric acid/sodium chloride buffer pH 1.2, 37 °C, pH 1.2, 37 °C
Procedure: Solubility was investigated in four different buffer systems at two temperatures each.
Preparation of buffer solutions:
pH 1.2: 425.0 mL of 0.2 M hydrochloric acid solution, and 250.0 mL 0.2 M sodium chloride solution diluted to 1000 mL with water;
pH 6.8: 250.0 mL of 0.2 M monobasic potassium phosphate solution, 112.0 mL of 0.1 M sodium hydroxide solution diluted to 1000 mL with water;
pH 7.5: 250.0 mL of 0.2 M monobasic potassium phosphate solution, 112.0 mL of 0.1 M sodium hydroxide solution diluted to 1000 mL with water and adjusted to pH 7.5 with 0.1 M sodium hydroxide solution and.
Flow rate of the mobile phase: 0.5 mL min^−1 and a column temperature of 30 °C. The samples were injected at a volume of 10 µL with detection at wavelength 225 nm.
Preparation of the final test solution: Following stirring, the flask was allowed to deposit the excess amount of substance for 5 min. Thereafter, 1.0 mL of the supernatant was transferred into a 50 mL volumetric flask, dissolved in mobile phase, and adjusted to 50.0 mL with the same solvent. For the study at 25 °C, 5.0 mL of this solution was diluted to 20.0 mL with mobile phase. For the study at 37 °C, 5.0 mL of the solution was diluted to 50.0 mL with mobile phase.
10.0 mL of this solution was dissolved to 100.0 mL with mobile phase.

[3] = Caco-2, pH 7.4, Caco-2, monolayer qualification marker, read-out: Papp (AB)

Chain of P-glycoprotein (P-gp) (P08183 whole entry): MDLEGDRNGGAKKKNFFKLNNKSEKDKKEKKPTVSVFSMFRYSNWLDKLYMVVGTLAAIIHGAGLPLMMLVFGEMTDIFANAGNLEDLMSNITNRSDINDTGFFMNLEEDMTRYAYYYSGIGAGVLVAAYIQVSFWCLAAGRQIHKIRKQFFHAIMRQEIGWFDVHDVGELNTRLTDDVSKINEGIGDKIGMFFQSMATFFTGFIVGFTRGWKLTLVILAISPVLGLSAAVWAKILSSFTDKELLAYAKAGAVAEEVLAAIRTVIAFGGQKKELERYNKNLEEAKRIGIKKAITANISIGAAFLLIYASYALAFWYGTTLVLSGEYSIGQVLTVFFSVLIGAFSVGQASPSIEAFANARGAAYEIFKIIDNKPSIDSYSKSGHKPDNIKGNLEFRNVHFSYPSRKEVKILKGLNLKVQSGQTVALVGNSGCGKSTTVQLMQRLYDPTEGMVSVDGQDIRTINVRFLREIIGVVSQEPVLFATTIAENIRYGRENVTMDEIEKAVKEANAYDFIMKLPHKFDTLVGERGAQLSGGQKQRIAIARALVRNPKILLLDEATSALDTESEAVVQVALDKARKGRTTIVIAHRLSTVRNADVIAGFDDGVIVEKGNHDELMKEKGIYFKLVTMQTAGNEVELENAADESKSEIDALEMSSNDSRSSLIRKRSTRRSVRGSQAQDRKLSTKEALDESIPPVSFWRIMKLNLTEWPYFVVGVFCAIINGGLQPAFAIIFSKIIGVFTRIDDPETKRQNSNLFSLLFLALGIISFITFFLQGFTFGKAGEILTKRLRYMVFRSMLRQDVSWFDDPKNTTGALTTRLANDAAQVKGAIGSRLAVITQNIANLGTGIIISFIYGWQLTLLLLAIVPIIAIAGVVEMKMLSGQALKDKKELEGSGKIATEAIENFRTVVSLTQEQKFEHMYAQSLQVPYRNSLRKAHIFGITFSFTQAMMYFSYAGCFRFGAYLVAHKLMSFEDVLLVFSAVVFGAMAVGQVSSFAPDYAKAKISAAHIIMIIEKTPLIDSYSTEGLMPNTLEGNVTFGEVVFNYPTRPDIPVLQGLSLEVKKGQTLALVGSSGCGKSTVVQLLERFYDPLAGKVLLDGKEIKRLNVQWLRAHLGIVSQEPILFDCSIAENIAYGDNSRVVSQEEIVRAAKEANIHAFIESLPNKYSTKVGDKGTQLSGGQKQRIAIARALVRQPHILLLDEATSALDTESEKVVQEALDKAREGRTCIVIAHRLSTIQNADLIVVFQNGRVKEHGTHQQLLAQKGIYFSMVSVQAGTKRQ

SMILES: C[C@H]1O[C@@H](O[C@H]2[C@@H](O)C[C@H](O[C@H]3[C@@H](O)C[C@H](O[C@H]4CC[C@@]5(C)[C@H](CC[C@@H]6[C@@H]5C[C@@H](O)[C@]5(C)[C@@H](C7=CC(=O)OC7)CC[C@]65O)C4)O[C@@H]3C)O[C@@H]2C)C[C@H](O)[C@@H]1O [[^3H]-digoxin, reference compound]
- Bi-directional transport in presence of enisamium iodide (P-glycoprotein (P-gp); [^3H]-digoxin 1 μmol·L^−1, enisamium iodide 10 μmol·L^−1, Caco-2): transported much more in the ba direction as compared to the ab

SMILES: CCCCCCCCCCCCOS(=O)(=O)[O-].[Na+] [sodium dodecyl sulfate]
- TEER after recovery (Caco-2 cells; positive control, growth medium within 24 h): 118 Ω·cm^2
- TEER after exposure (Caco-2 cells; positive control, immediate and remaining reduction): < 108 Ω·cm^2

SMILES: C[n+]1ccc(C(=O)NCc2ccccc2)cc1.[I-] [enisamium iodide, 4-(benzylcarbamoyl)-1-methylpyridinium iodide]
- Evidence for active transport (Caco-2 cell monolayers): no evidence for active transport
- Permeability classification (Caco-2 cell monolayers): low in vitro permeability
- Papp A→B at 120 min ([1]; Caco-2, pH 7.4, Caco-2, donor concentrations 10–100 μM, KRB pH 7.4, read-out: Permeability coefficient (Papp), apical to basolateral): 0.2 to 0.3 ×10⁻⁶ cm/s
- TEER relative to TEER measured in medium without test substance (Caco-2 cells; up to 100 μM, after 2 h of incubation): about 100%
- Solubility classification according to the BCS [2]: highly soluble
- Amount that can be dissolved in 250 mL of buffer solution ([2]; 37 °C): at least 31.8 g
- solubility at 96 h ([2]; four buffer solutions (pH 1.2, 4.5, 6.8, 7.5), 25 °C, pH 1.2, aqueous buffer, thermodynamic from solid, four buffer solutions from pH 1.2 to 7.5, 25 °C): ~60 mg/mL
- solubility ([2]; four buffer solutions (pH 1.2, 4.5, 6.8, 7.5), 37 °C, pH 1.2, aqueous buffer, thermodynamic from solid, four buffer solutions from pH 1.2 to 7.5, 37 °C, depending on the pH): 130 to 150 mg/mL
- solubility at 96 h ([2]; hydrochloric acid/sodium chloride buffer pH 1.2, 25 °C, pH 1.2, simulated gastric fluid, thermodynamic from solid, pH 1.2, 25 °C, batch 170215): 63.2 mg/mL
- solubility at 96 h ([2]; hydrochloric acid/sodium chloride buffer pH 1.2, 25 °C, pH 1.2, simulated gastric fluid, thermodynamic from solid, pH 1.2, 25 °C, batch 180215): 63.5 mg/mL
- solubility at 96 h ([2]; hydrochloric acid/sodium chloride buffer pH 1.2, 25 °C, pH 1.2, simulated gastric fluid, thermodynamic from solid, pH 1.2, 25 °C, batch 190315): 63.2 mg/mL
- solubility at 96 h ([2]; hydrochloric acid/sodium chloride buffer pH 1.2, 25 °C, pH 1.2, simulated gastric fluid, thermodynamic from solid, pH 1.2, 25 °C, mean of three batches): 63.3 mg/mL
- solubility at 48 h ([2]; pH 1.2, simulated gastric fluid, thermodynamic from solid, batch 170215): 152 mg/mL
- solubility at 48 h ([2]; pH 1.2, simulated gastric fluid, thermodynamic from solid, batch 180215): 155 mg/mL
- solubility at 48 h ([2]; pH 1.2, simulated gastric fluid, thermodynamic from solid, batch 190315): 155 mg/mL
- solubility at 48 h ([2]; pH 1.2, simulated gastric fluid, thermodynamic from solid, mean of three batches): 154 mg/mL
- solubility at 96 h ([2]; potassium phosphate buffer pH 6.8, 25 °C, pH 6.8, aqueous buffer, thermodynamic from solid, pH 6.8, 25 °C, batch 170215): 60.8 mg/mL
- solubility at 96 h ([2]; potassium phosphate buffer pH 6.8, 25 °C, pH 6.8, aqueous buffer, thermodynamic from solid, pH 6.8, 25 °C, batch 180215): 59.5 mg/mL
- solubility at 96 h ([2]; potassium phosphate buffer pH 6.8, 25 °C, pH 6.8, aqueous buffer, thermodynamic from solid, pH 6.8, 25 °C, batch 190315): 60.2 mg/mL
- solubility at 96 h ([2]; potassium phosphate buffer pH 6.8, 25 °C, pH 6.8, aqueous buffer, thermodynamic from solid, pH 6.8, 25 °C, mean of three batches): 60.2 mg/mL
- solubility at 96 h ([2]; potassium phosphate buffer pH 6.8, 37 °C, pH 6.8, aqueous buffer, thermodynamic from solid, pH 6.8, 37 °C, batch 170215): 131 mg/mL
- solubility at 96 h ([2]; potassium phosphate buffer pH 6.8, 37 °C, pH 6.8, aqueous buffer, thermodynamic from solid, pH 6.8, 37 °C, batch 180215): 128 mg/mL
- solubility at 96 h ([2]; potassium phosphate buffer pH 6.8, 37 °C, pH 6.8, aqueous buffer, thermodynamic from solid, pH 6.8, 37 °C, batch 190315): 131 mg/mL
- solubility at 96 h ([2]; potassium phosphate buffer pH 6.8, 37 °C, pH 6.8, aqueous buffer, thermodynamic from solid, pH 6.8, 37 °C, mean of three batches): 130 mg/mL
- solubility at 96 h ([2]; potassium phosphate buffer pH 7.5, 25 °C, pH 7.5, aqueous buffer, thermodynamic from solid, pH 7.5, 25 °C, batch 170215): 58.9 mg/mL
- solubility at 96 h ([2]; potassium phosphate buffer pH 7.5, 25 °C, pH 7.5, aqueous buffer, thermodynamic from solid, pH 7.5, 25 °C, batch 180215): 59.2 mg/mL
- solubility at 96 h ([2]; potassium phosphate buffer pH 7.5, 25 °C, pH 7.5, aqueous buffer, thermodynamic from solid, pH 7.5, 25 °C, batch 190315): 59.1 mg/mL
- solubility at 96 h ([2]; potassium phosphate buffer pH 7.5, 25 °C, pH 7.5, aqueous buffer, thermodynamic from solid, pH 7.5, 25 °C, mean of three batches): 59.1 mg/mL
- solubility at 96 h ([2]; potassium phosphate buffer pH 7.5, 37 °C, pH 7.5, aqueous buffer, thermodynamic from solid, pH 7.5, 37 °C, batch 170215): 127 mg/mL
- solubility at 96 h ([2]; potassium phosphate buffer pH 7.5, 37 °C, pH 7.5, aqueous buffer, thermodynamic from solid, pH 7.5, 37 °C, batch 180215): 130 mg/mL
- solubility at 96 h ([2]; potassium phosphate buffer pH 7.5, 37 °C, pH 7.5, aqueous buffer, thermodynamic from solid, pH 7.5, 37 °C, batch 190315): 126 mg/mL
- solubility at 96 h ([2]; potassium phosphate buffer pH 7.5, 37 °C, pH 7.5, aqueous buffer, thermodynamic from solid, pH 7.5, 37 °C, mean of three batches): 128 mg/mL
- solubility at 96 h ([2]; sodium acetate/acetic acid buffer pH 4.5, 25 °C, pH 4.5, aqueous buffer, thermodynamic from solid, pH 4.5, 25 °C, batch 170215): 59.7 mg/mL
- solubility at 96 h ([2]; sodium acetate/acetic acid buffer pH 4.5, 25 °C, pH 4.5, aqueous buffer, thermodynamic from solid, pH 4.5, 25 °C, batch 180215): 59.3 mg/mL
- solubility at 96 h ([2]; sodium acetate/acetic acid buffer pH 4.5, 25 °C, pH 4.5, aqueous buffer, thermodynamic from solid, pH 4.5, 25 °C, batch 190315): 60.9 mg/mL
- solubility at 96 h ([2]; sodium acetate/acetic acid buffer pH 4.5, 25 °C, pH 4.5, aqueous buffer, thermodynamic from solid, pH 4.5, 25 °C, mean of three batches): 60 mg/mL
- solubility at 96 h ([2]; sodium acetate/acetic acid buffer pH 4.5, 37 °C, pH 4.5, aqueous buffer, thermodynamic from solid, pH 4.5, 37 °C, batch 170215): 132 mg/mL
- solubility at 96 h ([2]; sodium acetate/acetic acid buffer pH 4.5, 37 °C, pH 4.5, aqueous buffer, thermodynamic from solid, pH 4.5, 37 °C, batch 180215): 133 mg/mL
- solubility at 96 h ([2]; sodium acetate/acetic acid buffer pH 4.5, 37 °C, pH 4.5, aqueous buffer, thermodynamic from solid, pH 4.5, 37 °C, batch 190315): 136 mg/mL
- solubility at 96 h ([2]; sodium acetate/acetic acid buffer pH 4.5, 37 °C, pH 4.5, aqueous buffer, thermodynamic from solid, pH 4.5, 37 °C, mean of three batches): 134 mg/mL
- P-gp-mediated transport of the substance (P-glycoprotein (P-gp); bi-directional transport 10 μM with/without cyclosporin A 12 μmol·L^−1): not indicative for a P-gp-mediated transport
- Fold lower permeation coefficient in ab direction with cyclosporin A compared to without CsA (P-glycoprotein (P-gp); human, Caco-2, 120 min, 10 μM, pH 7.4): more than 3 times

SMILES: COC(=O)c1ccccc1-c1c2ccc(=N)cc-2oc2cc(N)ccc12 [rhodamine 123, reference compound]
- efflux ratio at 120 min ([1]; pH 7.4, Caco-2, efflux ratio, monolayer qualification marker, read-out: Papp (BA)/Papp (AB)): 17.1
- Papp B→A at 120 min ([1]; pH 7.4, Caco-2, monolayer qualification marker): 4.5 ×10⁻⁶ cm/s

SMILES: CC(C)NCC(O)COc1cccc2ccccc12 (stereo not shown) [propranolol, reference compound]
- Papp A→B at 120 min [1, 3]: 19.6 ×10⁻⁶ cm/s

SMILES: O=C1OC2(c3ccc(O)cc3Oc3cc(O)ccc32)c2ccccc21 [fluorescein, reference compound]
- Papp A→B at 120 min [1, 3]: 0.18 ×10⁻⁶ cm/s

Source: publication PMC5874533 (Scientia Pharmaceutica, 2018)
